In ChEMBL document CHEMBL4507266, “Data for DCP probe BAY-784” (2021):

Legend:
[1] = biological target: Cholecystokinin receptor type A (Homo sapiens) (UniProt P32238); assay: Inhibition of Cholecystokinin CCK1 (CCKA) at 10 µM in the Eurofins-Panlabs radioligand binding assay (Eurofins_assay_218020); details: Compound concentration 10.0 uM
[2] = biological target: T1, Alpha-1A adrenergic receptor (Homo sapiens) (UniProt P35348); details: Rattus norvegicus; Compound concentration 10.0 uM
T1 sequence (whole entry): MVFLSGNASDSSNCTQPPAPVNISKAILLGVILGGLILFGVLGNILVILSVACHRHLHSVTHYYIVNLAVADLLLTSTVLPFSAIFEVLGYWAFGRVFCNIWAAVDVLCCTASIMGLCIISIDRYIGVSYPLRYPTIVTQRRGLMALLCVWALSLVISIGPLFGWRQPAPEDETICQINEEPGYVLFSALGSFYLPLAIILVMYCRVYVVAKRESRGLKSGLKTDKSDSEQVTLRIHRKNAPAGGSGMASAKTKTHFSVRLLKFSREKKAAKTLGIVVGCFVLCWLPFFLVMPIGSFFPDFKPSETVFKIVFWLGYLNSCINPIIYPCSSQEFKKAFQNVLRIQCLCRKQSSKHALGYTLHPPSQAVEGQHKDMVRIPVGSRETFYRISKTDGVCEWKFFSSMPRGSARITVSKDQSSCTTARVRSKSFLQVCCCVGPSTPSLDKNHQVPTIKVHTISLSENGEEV

[3] = biological target: Sodium-dependent serotonin transporter (Homo sapiens) (UniProt P31645); details: Compound concentration 10.0 uM
[4] = biological target: Estrogen receptor (Homo sapiens) (UniProt P03372); details: Compound concentration 10.0 uM
[5] = biological target: Thromboxane-A synthase (Homo sapiens) (UniProt P24557); assay: Inhibition of Thromboxane Synthase at compound concentration of 10.0 uM in the Eurofins-Panlabs enzyme assay (Eurofins_assay_194020); parameters: substrate with concentration; details: Compound concentration 10.0 uM
[6] = biological target: Acetylcholinesterase (Homo sapiens) (UniProt P22303); details: Compound concentration 10.0 uM
[7] = biological target: Delta-type opioid receptor (Homo sapiens) (UniProt P41143); details: Compound concentration 10.0 uM
CYP3A4 = CYP3A4 (Homo sapiens, UniProt P08684); assay: CYP450, 3A4 Eurofins-Panlabs enzyme assay; details: compound concentration 10 uM
[8] = biological target: Protein phosphatase 3 catalytic subunit alpha (Homo sapiens) (UniProt Q08209); assay: Inhibition of Protein Serine/threonine Phosphatase, PPP3CA (Calcineurin, PP2B) […] in the Eurofins-Panlabs enzyme assay (Eurofins_assay_188020); parameters: substrate with concentration; details: Compound concentration 10.0 uM
[9] = biological target: B2 bradykinin receptor (Homo sapiens) (UniProt P30411); details: Compound concentration 10.0 uM
[10] = biological target: T2, 5-hydroxytryptamine receptor 3A (Homo sapiens) (UniProt P46098); assay: Inhibition of Serotonin (5-Hydroxytryptamine) 5-HT3 at 10 µM in the Eurofins-Panlabs radioligand binding assay (Eurofins_assay_271910); parameters: ligand concentration 0.69 nM; details: Compound concentration 10.0 uM
T2 sequence (whole entry): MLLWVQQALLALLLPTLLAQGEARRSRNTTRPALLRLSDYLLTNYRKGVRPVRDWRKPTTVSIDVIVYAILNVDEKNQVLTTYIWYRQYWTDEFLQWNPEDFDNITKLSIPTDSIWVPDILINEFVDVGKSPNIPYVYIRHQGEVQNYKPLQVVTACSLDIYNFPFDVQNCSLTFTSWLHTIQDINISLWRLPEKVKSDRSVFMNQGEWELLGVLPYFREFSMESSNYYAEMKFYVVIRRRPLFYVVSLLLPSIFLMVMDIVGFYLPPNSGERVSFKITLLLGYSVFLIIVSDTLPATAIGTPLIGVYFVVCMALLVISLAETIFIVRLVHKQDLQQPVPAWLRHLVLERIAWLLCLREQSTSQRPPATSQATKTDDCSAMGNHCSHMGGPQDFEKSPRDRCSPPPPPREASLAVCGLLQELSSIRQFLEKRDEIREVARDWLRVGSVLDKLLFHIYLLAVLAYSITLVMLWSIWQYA

[11] = biological target: Kappa-type opioid receptor (Homo sapiens) (UniProt P41145); details: Compound concentration 10.0 uM
Rattus norvegicus = species on record: Rattus norvegicus; assay: Inhibition of Glycine, Strychnine-Sensitive at 10 µM in the Eurofins-Panlabs radioligand binding assay (Eurofins_assay_239000); details: Compound concentration 10.0 uM
[12] = biological target: Melanocortin receptor 4 (Homo sapiens) (UniProt P32245); assay: Inhibition of Melanocortin MC4 at 10 µM in the Eurofins-Panlabs radioligand binding assay (Eurofins_assay_251350); parameters: ligand concentration 0.02 nM; details: Compound concentration 10.0 uM
[13] = biological target: Adenosine receptor A1 (Homo sapiens) (UniProt P30542); details: Compound concentration 10.0 uM
Homo sapiens = species on record: Homo sapiens; assay: Inhibition of Tumor Necrosis Factor (TNF), Non-Selective at 10 µM in the Eurofins-Panlabs radioligand binding assay (Eurofins_assay_286510); details: Compound concentration 10.0 uM
[14] = biological target: L-type calcium channel, dihydropyridine site (Cav1.2 alpha-1C) (Homo sapiens, UniProt Q13936); assay: Inhibition of Calcium Channel L-Type, Dihydropyridine at 10 µM in the Eurofins-Panlabs radioligand binding assay (Eurofins_assay_214600); parameters: ligand concentration 0.1 nM, non-specific ligand with concentration 1 µM Nitrendipine, incubation time 90 min, incubation temperature 25 °C; details: Wistar, rat, rat cerebral cortex preparation, probe [3H] Nitrendipine, 0.1 nM; compound concentration 10 uM; target entry is the homologue from another species
[15] = biological target: L-type calcium channel, benzothiazepine site (Cav1.2 alpha-1C) (Homo sapiens, UniProt Q13936); assay: Inhibition of Calcium Channel L-Type, Benzothiazepine at 10 µM in the Eurofins-Panlabs radioligand binding assay (Eurofins_assay_214510); parameters: ligand concentration 2 nM, non-specific ligand with concentration 10 µM Diltiazem, incubation time 3h, incubation temperature 4 °C; details: male, Wistar, rat, rat whole brain preparation, probe [3H] Diltiazem, 2 nM; compound concentration 10 uM; target entry is the homologue from another species
[16] = biological target: T3, Alpha-2C adrenergic receptor (Homo sapiens) (UniProt P18825); assay: Adrenergic alpha2C Eurofins-Panlabs radioligand binding assay; parameters: ligand concentration 1 nM, non-specific ligand with concentration 10 µM WB-4101, incubation time 60 min, incubation temperature 25 °C; details: Compound concentration 10.0 uM
T3 sequence (whole entry): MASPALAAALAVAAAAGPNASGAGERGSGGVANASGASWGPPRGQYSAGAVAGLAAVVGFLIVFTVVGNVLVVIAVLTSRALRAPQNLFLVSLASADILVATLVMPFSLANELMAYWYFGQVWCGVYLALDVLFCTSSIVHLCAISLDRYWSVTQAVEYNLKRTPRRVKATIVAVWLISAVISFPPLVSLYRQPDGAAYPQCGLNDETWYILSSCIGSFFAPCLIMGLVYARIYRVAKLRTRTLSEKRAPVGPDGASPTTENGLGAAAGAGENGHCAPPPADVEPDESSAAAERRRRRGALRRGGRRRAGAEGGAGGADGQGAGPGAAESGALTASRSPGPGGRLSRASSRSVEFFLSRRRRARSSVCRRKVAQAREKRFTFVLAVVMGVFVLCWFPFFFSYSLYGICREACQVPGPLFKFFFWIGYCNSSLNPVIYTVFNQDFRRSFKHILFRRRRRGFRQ

D(1A) dopamine receptor = D(1A) dopamine receptor (Homo sapiens, UniProt P21728); assay: GPCRScan assay: inhibition of D1; parameters: radioligand conc. used [nm] 0.6 – 1.3, parental cells HEKT

Sequence of L-type calcium channel, benzothiazepine site (Cav1.2 alpha-1C) (Q13936 whole entry): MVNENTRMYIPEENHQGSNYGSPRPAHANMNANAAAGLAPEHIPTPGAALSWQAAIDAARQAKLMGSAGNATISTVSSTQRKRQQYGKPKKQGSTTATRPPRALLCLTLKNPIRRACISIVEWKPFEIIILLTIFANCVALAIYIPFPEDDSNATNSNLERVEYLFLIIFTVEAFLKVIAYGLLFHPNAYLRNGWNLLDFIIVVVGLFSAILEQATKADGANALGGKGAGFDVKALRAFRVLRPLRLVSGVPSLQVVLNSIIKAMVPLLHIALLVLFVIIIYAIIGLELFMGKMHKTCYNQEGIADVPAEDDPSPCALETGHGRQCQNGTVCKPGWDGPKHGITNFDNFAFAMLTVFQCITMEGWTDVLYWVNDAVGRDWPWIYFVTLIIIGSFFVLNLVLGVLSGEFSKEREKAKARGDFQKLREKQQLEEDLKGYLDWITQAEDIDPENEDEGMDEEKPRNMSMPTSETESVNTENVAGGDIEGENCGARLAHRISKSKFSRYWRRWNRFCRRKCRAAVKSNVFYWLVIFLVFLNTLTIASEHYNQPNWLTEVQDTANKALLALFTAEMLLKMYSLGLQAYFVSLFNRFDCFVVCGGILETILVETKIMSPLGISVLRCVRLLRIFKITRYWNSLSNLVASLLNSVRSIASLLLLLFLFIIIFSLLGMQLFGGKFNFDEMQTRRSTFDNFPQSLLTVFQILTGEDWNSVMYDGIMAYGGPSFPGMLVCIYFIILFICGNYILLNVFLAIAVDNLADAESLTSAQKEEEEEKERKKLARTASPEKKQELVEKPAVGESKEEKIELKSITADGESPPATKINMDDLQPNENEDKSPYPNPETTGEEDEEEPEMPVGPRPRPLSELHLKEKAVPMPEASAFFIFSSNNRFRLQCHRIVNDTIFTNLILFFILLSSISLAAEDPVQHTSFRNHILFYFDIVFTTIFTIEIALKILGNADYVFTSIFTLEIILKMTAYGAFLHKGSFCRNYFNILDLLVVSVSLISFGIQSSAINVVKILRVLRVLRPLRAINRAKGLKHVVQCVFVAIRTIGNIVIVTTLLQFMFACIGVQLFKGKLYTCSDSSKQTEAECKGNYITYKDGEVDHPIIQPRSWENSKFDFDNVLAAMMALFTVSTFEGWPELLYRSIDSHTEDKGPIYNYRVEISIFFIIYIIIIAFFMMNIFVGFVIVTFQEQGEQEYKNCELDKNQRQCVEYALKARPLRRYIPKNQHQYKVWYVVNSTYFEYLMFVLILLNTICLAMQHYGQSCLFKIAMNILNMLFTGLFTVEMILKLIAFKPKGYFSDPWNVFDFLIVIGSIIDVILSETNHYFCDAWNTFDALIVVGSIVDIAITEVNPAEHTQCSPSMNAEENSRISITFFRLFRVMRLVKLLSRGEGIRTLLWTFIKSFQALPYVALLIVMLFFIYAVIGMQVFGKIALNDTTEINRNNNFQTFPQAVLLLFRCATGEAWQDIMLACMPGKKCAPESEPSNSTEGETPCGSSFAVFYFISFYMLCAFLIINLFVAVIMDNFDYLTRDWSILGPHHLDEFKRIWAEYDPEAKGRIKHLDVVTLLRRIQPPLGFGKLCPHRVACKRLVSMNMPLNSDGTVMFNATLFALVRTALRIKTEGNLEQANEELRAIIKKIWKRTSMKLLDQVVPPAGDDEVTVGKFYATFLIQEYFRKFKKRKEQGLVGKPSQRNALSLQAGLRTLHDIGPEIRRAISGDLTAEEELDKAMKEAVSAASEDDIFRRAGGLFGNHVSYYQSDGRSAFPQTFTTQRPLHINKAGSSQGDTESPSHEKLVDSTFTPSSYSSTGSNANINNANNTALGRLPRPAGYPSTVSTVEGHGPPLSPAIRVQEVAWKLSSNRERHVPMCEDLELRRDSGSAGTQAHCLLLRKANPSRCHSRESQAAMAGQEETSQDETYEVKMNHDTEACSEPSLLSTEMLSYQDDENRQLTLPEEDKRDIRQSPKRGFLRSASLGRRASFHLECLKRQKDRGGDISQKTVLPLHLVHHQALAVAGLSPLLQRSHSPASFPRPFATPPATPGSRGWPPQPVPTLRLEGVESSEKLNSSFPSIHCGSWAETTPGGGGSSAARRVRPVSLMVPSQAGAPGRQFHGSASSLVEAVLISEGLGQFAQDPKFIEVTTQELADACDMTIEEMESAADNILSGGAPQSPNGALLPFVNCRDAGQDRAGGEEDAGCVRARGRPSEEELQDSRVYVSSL
Sequence of L-type calcium channel, dihydropyridine site (Cav1.2 alpha-1C) (Q13936 whole entry): as above
Sequence of Kappa-type opioid receptor (Homo sapiens) (P41145 whole entry): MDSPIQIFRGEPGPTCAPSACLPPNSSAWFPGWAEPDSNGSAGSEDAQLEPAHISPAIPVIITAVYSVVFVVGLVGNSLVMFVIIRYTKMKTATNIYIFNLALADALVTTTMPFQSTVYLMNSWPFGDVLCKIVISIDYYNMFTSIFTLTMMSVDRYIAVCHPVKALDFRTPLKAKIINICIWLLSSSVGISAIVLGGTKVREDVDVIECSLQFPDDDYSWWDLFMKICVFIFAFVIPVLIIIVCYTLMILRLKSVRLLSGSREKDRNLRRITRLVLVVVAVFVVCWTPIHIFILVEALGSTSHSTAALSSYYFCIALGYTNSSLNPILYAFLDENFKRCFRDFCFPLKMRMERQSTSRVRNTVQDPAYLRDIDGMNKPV
Sequence of Melanocortin receptor 4 (Homo sapiens) (P32245 whole entry): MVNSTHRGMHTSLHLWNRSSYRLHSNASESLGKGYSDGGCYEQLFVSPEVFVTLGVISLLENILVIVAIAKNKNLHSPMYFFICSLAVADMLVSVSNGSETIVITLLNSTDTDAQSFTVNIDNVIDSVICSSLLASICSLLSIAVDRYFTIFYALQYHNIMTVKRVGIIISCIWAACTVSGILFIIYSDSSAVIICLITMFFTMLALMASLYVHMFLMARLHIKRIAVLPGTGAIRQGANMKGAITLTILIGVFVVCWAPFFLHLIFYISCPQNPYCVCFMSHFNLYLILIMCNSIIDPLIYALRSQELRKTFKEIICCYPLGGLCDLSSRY
Sequence of Acetylcholinesterase (Homo sapiens) (P22303 whole entry): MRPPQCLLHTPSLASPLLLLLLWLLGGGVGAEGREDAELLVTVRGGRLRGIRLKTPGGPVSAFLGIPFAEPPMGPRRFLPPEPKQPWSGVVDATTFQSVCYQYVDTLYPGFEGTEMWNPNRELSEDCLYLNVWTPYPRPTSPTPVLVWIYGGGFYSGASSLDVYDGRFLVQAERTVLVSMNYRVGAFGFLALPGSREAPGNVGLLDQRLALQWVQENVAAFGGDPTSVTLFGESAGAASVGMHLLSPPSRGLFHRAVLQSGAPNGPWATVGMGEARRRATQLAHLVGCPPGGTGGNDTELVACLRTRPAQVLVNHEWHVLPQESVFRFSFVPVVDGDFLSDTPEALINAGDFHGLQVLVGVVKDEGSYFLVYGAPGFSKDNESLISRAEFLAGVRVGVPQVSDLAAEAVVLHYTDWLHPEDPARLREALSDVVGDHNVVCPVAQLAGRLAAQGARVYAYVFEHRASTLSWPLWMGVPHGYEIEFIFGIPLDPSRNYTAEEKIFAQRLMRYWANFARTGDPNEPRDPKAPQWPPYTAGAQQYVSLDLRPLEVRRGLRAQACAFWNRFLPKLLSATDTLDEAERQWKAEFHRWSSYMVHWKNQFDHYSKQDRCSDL
Sequence of Adenosine receptor A1 (Homo sapiens) (P30542 whole entry): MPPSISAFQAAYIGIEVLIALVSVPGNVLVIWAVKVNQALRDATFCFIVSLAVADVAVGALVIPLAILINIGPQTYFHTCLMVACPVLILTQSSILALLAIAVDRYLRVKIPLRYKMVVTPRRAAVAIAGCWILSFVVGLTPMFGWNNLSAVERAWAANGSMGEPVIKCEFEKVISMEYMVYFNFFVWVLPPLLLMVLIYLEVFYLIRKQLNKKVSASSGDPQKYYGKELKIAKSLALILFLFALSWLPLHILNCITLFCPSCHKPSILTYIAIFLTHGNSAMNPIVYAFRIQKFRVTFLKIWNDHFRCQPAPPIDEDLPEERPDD
Sequence of Estrogen receptor (Homo sapiens) (P03372 whole entry): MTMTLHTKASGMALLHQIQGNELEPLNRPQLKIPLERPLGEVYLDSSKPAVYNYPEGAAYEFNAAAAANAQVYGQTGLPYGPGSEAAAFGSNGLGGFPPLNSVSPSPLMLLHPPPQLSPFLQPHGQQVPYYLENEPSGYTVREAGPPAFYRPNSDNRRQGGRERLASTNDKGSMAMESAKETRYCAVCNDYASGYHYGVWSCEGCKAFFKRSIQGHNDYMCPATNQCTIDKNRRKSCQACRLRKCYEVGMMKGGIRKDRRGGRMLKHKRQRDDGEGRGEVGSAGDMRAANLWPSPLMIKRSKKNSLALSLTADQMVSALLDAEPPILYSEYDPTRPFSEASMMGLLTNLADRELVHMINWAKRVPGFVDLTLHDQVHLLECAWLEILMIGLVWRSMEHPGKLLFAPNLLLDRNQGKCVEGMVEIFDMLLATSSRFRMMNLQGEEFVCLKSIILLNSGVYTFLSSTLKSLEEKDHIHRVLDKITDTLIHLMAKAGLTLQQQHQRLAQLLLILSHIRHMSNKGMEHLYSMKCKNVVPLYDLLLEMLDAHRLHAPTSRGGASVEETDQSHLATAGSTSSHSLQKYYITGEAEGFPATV
Sequence of Delta-type opioid receptor (Homo sapiens) (P41143 whole entry): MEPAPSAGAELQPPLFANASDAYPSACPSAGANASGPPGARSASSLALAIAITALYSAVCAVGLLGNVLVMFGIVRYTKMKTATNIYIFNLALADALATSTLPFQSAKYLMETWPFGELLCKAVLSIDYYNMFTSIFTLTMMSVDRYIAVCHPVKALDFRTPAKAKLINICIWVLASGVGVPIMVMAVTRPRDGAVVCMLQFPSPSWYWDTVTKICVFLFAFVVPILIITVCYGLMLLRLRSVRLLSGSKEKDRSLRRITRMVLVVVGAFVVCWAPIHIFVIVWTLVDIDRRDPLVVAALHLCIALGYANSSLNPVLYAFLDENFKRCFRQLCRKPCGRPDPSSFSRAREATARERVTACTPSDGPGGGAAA

| SMILES | inhibition [1] [%] | inhibition [2] [%] | inhibition [3] [%] | inhibition [4] [%] | inhibition [5] [%] | inhibition [6] [%] | inhibition [7] [%] | inhibition at 10 µM (CYP3A4) | inhibition [8] [%] | inhibition [9] [%] | inhibition [10] [%] | inhibition [11] [%] | inhibition (Rattus norvegicus) [%] | inhibition [12] [%] | inhibition [13] [%] | inhibition (Homo sapiens) [%] | inhibition at 90 min, 10 µM [14] | inhibition at 3 h, 10 µM [15] | inhibition [16] [%] | Ki (D(1A) dopamine receptor) [µM] |
| --- | --- | --- | --- | --- | --- | --- | --- | --- | --- | --- | --- | --- | --- | --- | --- | --- | --- | --- | --- | --- |
| O=C(NCc1ncc(C(F)(F)F)cc1Cl)c1ccc2c(c1)C1(CCS(=O)(=O)CC1)[C@H](C1CC1)N2S(=O)(=O)c1ccc(F)cc1 [BAY-784] | -3 | 7 | 10 | 21 | 22 | 56 | 5 | 38% (not active) | 16 | 9 | 19 | 7 | 4 | 12 | 15 | 22 | 26% (not active) | 29% (not active) | 3 | – |
| O=C(NCc1ncc(C(F)(F)F)cc1Cl)c1ccc2c(c1)C1(CCS(=O)(=O)CC1)[C@@H](C1CC1)N2S(=O)(=O)c1ccc(F)cc1 [BAY-786] | – | – | – | – | – | – | – | – | – | – | – | – | – | – | – | – | – | – | – | 10 |
